{"source": "patent US8410170B2", "about": "“Use of isothiocyanates compounds in treating prostatic diseases and skin cancer” (Wuxi JC Pharmaceutical Technology Co., Ltd., priority 2005, dated 2013)", "test_system": "non-bacterial prostatitis", "assay": "Therapeutic effects on non-bacterial prostatitis (Xiaozhiling injection into prostate)", "assay_type": "in vivo, SD rats", "conditions": "for urine, 1 h Period / urine, 2 h Period / urine, 3 h Period: last dosing day", "method": "Fifty-five male SD rats were randomly divided into 6 groups, 9 each, except the negative control group for which 10 animals were used. All animals from group 1 to 6 were anesthetized by injection of ketamine under sterile conditions and incised around 1.5 cm with a sterilized surgery scalpel at middle of abdomen. Animals in Group 1 were injected penicillin to prevent infection, and given distill water, 10 ml/kg, once a day, 5 times a week for 5 weeks. Groups from 2 to 6 injected 25% Xiaozhiling into left and right lobes of prostate, 0.1 ml for each lobe and sew the muscle and skin with #1 silk thread. The animals were then given penicillin to prevent infectious. Group 2 was served as negative control group in which animals were treated with distill water by gavage 24 hrs after the Xiaozhiling injection, once a day, 5 times a week for 5 weeks. Group 3 was served as positive control group in which animals were treated with GENURIN by gavage 24 hrs after the Xiaozhiling injection at dose of 60 mg/kg, once a day, 5 times a week (escaping weekend) for 5 weeks. […] On the last dosing day, urine samples from different groups that covered periods of 1, 2 and 3 hrs were collected.\nTwenty-four hrs after the last dose, the animals were euthanized and weighed. Volume and weight of prostate were measured. The averages of the prostate weight/volume and organ coefficient (average weight of prostate/average of body weight) were calculated, and statistical analysis performed (t test).\nProstate tissues of animals from different groups were embedded with paraffin. The tissue sections were stained with H&E for histpathological examination by an anatomical pathologist."}
{"smiles": "S=C=NCCc1ccccc1", "note": "[PEITC, phenethyl isothiocyanate]", "values": [{"measurement": "Edema: no. of animals with score +", "setting": "PEITC 2 mg/kg, 9 animals", "value": 3}, {"measurement": "Edema: no. of animals with score ++", "setting": "PEITC 2 mg/kg, 9 animals", "value": 0}, {"measurement": "Edema: no. of animals with score +++", "setting": "PEITC 2 mg/kg, 9 animals", "value": 0}, {"measurement": "Fibrous Exudation: no. of animals with score 0", "setting": "PEITC 2 mg/kg, 9 animals", "value": 5}, {"measurement": "Fibrous Exudation: no. of animals with score +", "setting": "PEITC 2 mg/kg, 9 animals", "value": 4}, {"measurement": "Fibrous Exudation: no. of animals with score ++", "setting": "PEITC 2 mg/kg, 9 animals", "value": 0}, {"measurement": "Fibrous Exudation: no. of animals with score +++", "setting": "PEITC 2 mg/kg, 9 animals", "value": 0}, {"measurement": "Histopathological score of prostatitis, Overall Average X ± SD", "setting": "PEITC 2 mg/kg, 9 animals", "value": "2.16 ± 1.52"}, {"measurement": "Hyperblastosis: no. of animals with score 0", "setting": "PEITC 2 mg/kg, 9 animals", "value": 7}, {"measurement": "Hyperblastosis: no. of animals with score +", "setting": "PEITC 2 mg/kg, 9 animals", "value": 2}, {"measurement": "Hyperblastosis: no. of animals with score ++", "setting": "PEITC 2 mg/kg, 9 animals", "value": 0}, {"measurement": "Hyperblastosis: no. of animals with score +++", "setting": "PEITC 2 mg/kg, 9 animals", "value": 0}, {"measurement": "Inflammatory Infiltration: no. of animals with score 0", "setting": "PEITC 2 mg/kg, 9 animals", "value": 6}, {"measurement": "Inflammatory Infiltration: no. of animals with score +", "setting": "PEITC 2 mg/kg, 9 animals", "value": 3}, {"measurement": "Inflammatory Infiltration: no. of animals with score ++", "setting": "PEITC 2 mg/kg, 9 animals", "value": 0}, {"measurement": "Inflammatory Infiltration: no. of animals with score +++", "setting": "PEITC 2 mg/kg, 9 animals", "value": 0}, {"measurement": "urine, 1 h Period", "setting": "PEITC 2 mg/kg", "value": "6.6 ± 2.1", "unit": "mL"}, {"measurement": "urine, 2 h Period", "setting": "PEITC 2 mg/kg", "value": "8.7 ± 1.7", "unit": "mL"}, {"measurement": "urine, 3 h Period", "setting": "PEITC 2 mg/kg", "value": "9.2 ± 2.7", "unit": "mL"}, {"measurement": "Average of Body Weight", "setting": "PEITC 4 mg/kg gavage (Example 13-11), 5 weeks", "value": "370 ± 24.8", "unit": "g"}, {"measurement": "Average Volume of Prostate", "setting": "PEITC 4 mg/kg gavage, 5 weeks", "value": "0.78 ± 0.10", "unit": "cm^3"}, {"measurement": "Average Weight of Prostate", "setting": "PEITC 4 mg/kg gavage, 5 weeks", "value": "0.72 ± 0.16", "unit": "g"}, {"measurement": "Inhibition of Organ-coefficient", "setting": "PEITC 4 mg/kg gavage, 5 weeks", "value": 26.15, "unit": "%"}, {"measurement": "Organ Coefficient", "setting": "PEITC 4 mg/kg gavage, 5 weeks", "value": "0.192 ± 0.03", "unit": "%"}, {"measurement": "Bleeding: no. of animals with score 0", "setting": "PEITC 4 mg/kg, 9 animals", "value": 6}, {"measurement": "Bleeding: no. of animals with score +", "setting": "PEITC 4 mg/kg, 9 animals", "value": 3}, {"measurement": "Bleeding: no. of animals with score ++", "setting": "PEITC 4 mg/kg, 9 animals", "value": 0}, {"measurement": "Bleeding: no. of animals with score +++", "setting": "PEITC 4 mg/kg, 9 animals", "value": 0}, {"measurement": "Chronic Inflammatory Infiltration: no. of animals with score 0", "setting": "PEITC 4 mg/kg, 9 animals", "value": 9}, {"measurement": "Chronic Inflammatory Infiltration: no. of animals with score +", "setting": "PEITC 4 mg/kg, 9 animals", "value": 0}, {"measurement": "Chronic Inflammatory Infiltration: no. of animals with score ++", "setting": "PEITC 4 mg/kg, 9 animals", "value": 0}, {"measurement": "Chronic Inflammatory Infiltration: no. of animals with score +++", "setting": "PEITC 4 mg/kg, 9 animals", "value": 0}, {"measurement": "Congestion: no. of animals with score 0", "setting": "PEITC 4 mg/kg, 9 animals", "value": 7}, {"measurement": "Congestion: no. of animals with score +", "setting": "PEITC 4 mg/kg, 9 animals", "value": 2}, {"measurement": "Congestion: no. of animals with score ++", "setting": "PEITC 4 mg/kg, 9 animals", "value": 0}, {"measurement": "Congestion: no. of animals with score +++", "setting": "PEITC 4 mg/kg, 9 animals", "value": 0}, {"measurement": "Edema: no. of animals with score 0", "setting": "PEITC 4 mg/kg, 9 animals", "value": 5}, {"measurement": "Edema: no. of animals with score +", "setting": "PEITC 4 mg/kg, 9 animals", "value": 4}, {"measurement": "Edema: no. of animals with score ++", "setting": "PEITC 4 mg/kg, 9 animals", "value": 0}, {"measurement": "Edema: no. of animals with score +++", "setting": "PEITC 4 mg/kg, 9 animals", "value": 0}, {"measurement": "Fibrous Exudation: no. of animals with score 0", "setting": "PEITC 4 mg/kg, 9 animals", "value": 4}, {"measurement": "Fibrous Exudation: no. of animals with score +", "setting": "PEITC 4 mg/kg, 9 animals", "value": 4}, {"measurement": "Fibrous Exudation: no. of animals with score ++", "setting": "PEITC 4 mg/kg, 9 animals", "value": 1}, {"measurement": "Fibrous Exudation: no. of animals with score +++", "setting": "PEITC 4 mg/kg, 9 animals", "value": 0}, {"measurement": "Histopathological score of prostatitis, Overall Average X ± SD", "setting": "PEITC 4 mg/kg, 9 animals", "value": "1.72 ± 0.79"}, {"measurement": "Hyperblastosis: no. of animals with score 0", "setting": "PEITC 4 mg/kg, 9 animals", "value": 9}, {"measurement": "Hyperblastosis: no. of animals with score +", "setting": "PEITC 4 mg/kg, 9 animals", "value": 0}, {"measurement": "Hyperblastosis: no. of animals with score ++", "setting": "PEITC 4 mg/kg, 9 animals", "value": 0}, {"measurement": "Hyperblastosis: no. of animals with score +++", "setting": "PEITC 4 mg/kg, 9 animals", "value": 0}, {"measurement": "Inflammatory Infiltration: no. of animals with score 0", "setting": "PEITC 4 mg/kg, 9 animals", "value": 7}, {"measurement": "Inflammatory Infiltration: no. of animals with score +", "setting": "PEITC 4 mg/kg, 9 animals", "value": 2}, {"measurement": "Inflammatory Infiltration: no. of animals with score ++", "setting": "PEITC 4 mg/kg, 9 animals", "value": 0}, {"measurement": "Inflammatory Infiltration: no. of animals with score +++", "setting": "PEITC 4 mg/kg, 9 animals", "value": 0}, {"measurement": "histopathological scores versus untreated prostatitis animals (slide)", "setting": "PEITC 4 mg/kg, FIG. 7.3", "value": "less severe"}, {"measurement": "urine, 1 h Period", "setting": "PEITC 4 mg/kg", "value": "5.7 ± 2.2", "unit": "mL"}, {"measurement": "urine, 2 h Period", "setting": "PEITC 4 mg/kg", "value": "9.4 ± 1.5", "unit": "mL"}, {"measurement": "urine, 3 h Period", "setting": "PEITC 4 mg/kg", "value": "10.4 ± 1.9", "unit": "mL"}]}
